According to paper PMC11455950, “Effects of SZV-2649, a new multiple ion channel inhibitor mexiletine analogue” (Scientific Reports, 2024):

Tests used:
[1] = system: L-type inward calcium current (ICaL); assay: Whole-cell patch-clamp, L-type calcium current in dog ventricular myocytes; type: cell-based; details: 10 µM, dog left ventricular myocytes
Description: (§1) The effects of SZV-2649 on transmemrane ionic currents were investigated in dog cardiac myocytes after a 5-minute superfusion of the drug.
The L-type inward calcium current (ICaL) was measured from a holding potential of -80 mV with a 40 ms prepulse to -40 mV to inactivate INa (see inset of Fig. 3B). Test pulses of 400 ms duration from − 35 mV to 55 mV were applied with a pulsing cycle length of 3 s. In the internal (pipette) solution, KCl was replaced by 125 mM CsCl to block potassium currents.
(§2) Ventricular myocytes from Beagle dogs were enzymatically dissociated as described in detail previously. A single droplet of cell suspension was placed in a transparent recording chamber mounted on the stage of an inverted microscope (Olympus IX51, Olympus, Tokyo, Japan), and individual myocytes were allowed to settle and adhere to the chamber bottom for at least 5–10 min before superfusion was initiated and maintained by gravity. Only rod-shaped cells with clear striations were used. […]
(§3) The membrane currents were recorded with Axopatch-200B amplifiers (Molecular Devices, Sunnyvale, CA, USA) by means of the whole-cell configuration of the patch-clamp technique. […]
The L-type calcium current (ICaL) was recorded in HEPES-buffered Tyrode’s solution supplemented with 3 mM 4-aminopyridine. […]

[2] = system: slow delayed rectifier potassium current (IKs); assay: Whole-cell patch-clamp, slow delayed rectifier potassium current in dog ventricular myocytes; type: cell-based; details: 10 µM, dog left ventricular myocytes
Description: as §1
The slow delayed rectifier potassium current (IKs) was elicited from the holding potential of -80 mV with a prepulse to -40 mV. The IKs tail current was measured at a post pulse to -40 mV after 5-second-long test pulses from − 20 mV to 50 mV using 10 mV increments at the pulsing cycle length of 10 s (see inset of Fig. 4B). The effect of SZV-2649 was investigated at the concentration of 10 µM.
Ventricular myocytes from Beagle dogs were enzymatically dissociated as described in detail previously. […]
as §3
(§4) The inward rectifier (IK1), the transient outward (Ito), the rapid (IKr) and the slow (IKs) delayed rectifier potassium currents were recorded in HEPES-buffered Tyrode’s solution. […] When IKr was recorded, IKs was inhibited by using the selective IKs blocker HMR-1556 (0.5 µM). […]

[3] = system: inward rectifier potassium (IK1) current; assay: Whole-cell patch-clamp, steady state current-voltage relation in dog ventricular myocytes; type: cell-based; details: 10 µM, dog left ventricular myocytes
Text: as §1
Figure 4D represents the steady state current-voltage relation after 300 ms pulses from − 100 mV to 60 mV using 10 mV increments applying 3-second pulsing cycle length from the holding potential of -90 mV.
as §2, §3, §4

dog atrial muscle = assay: Conventional microelectrode action potential recording, dog atrial muscle; details: for APA / APD50 / APD90 / RP / Vmax: atrial muscle, CL = 1000 ms, n = 11
Description: The effects of SZV-2649 on action potentials were studied in dog ventricular, atrial and Purkinje fiber preparations.
Action potentials were recorded in cardiac ventricular trabeculae and papillary muscle preparations obtained from the right ventricles of Beagle dogs (10–15 kg) of either sex using the conventional microelectrode technique. Dogs were sacrificed by iv. sedation with xylazine (1 mg/kg), followed by i.v. administration of 50 mg/kg pentobarbital. After the cornea reflex disapeared the chest was opened, and the heart was rapidly removed. The heart was immediately rinsed in oxygenated modified Locke’s solution containing (in mM): NaCl 128.3, KCl 4, CaCl2 1.8, MgCl2 0.42, NaHCO3 21.4, and glucose 10. The pH of this solution was set between 7.35 and 7.4 when gassed with the mixture of 95% O2 and 5% CO2 at 37 °C.
Isolated papillary muscle or atrial trabecula and Purkinje fiber preparations were obtained and prepared from the right ventricle and were individually mounted in a tissue chamber with the volume of 50 ml. Each preparation was initially stimulated through a pair of platinum electrodes in contact with the preparation using rectangular current pulses of 2 ms duration. These stimuli were delivered at a constant cycle length of 1000 ms for at least 60 min allowing the preparation to equilibrate before the measurements were initiated. Transmembrane potentials were recorded using conventional glass microelectrodes, filled with 3 M KCl and having tip resistances of 5–20 MΩ, connected to the input of a high impedance electrometer (Experimetria, type 309, Budapest, Hungary) which was coupled to a dual beam oscilloscope. […] Stimulation with a constant cycle length of 1000 ms was applied in the course of all experiments. Attempts were made to maintain the same impalement throughout each experiment. In case an impalement became dislodged, adjustment was attempted, and if the action potential characteristics of the re-established impalement deviated by less than 5% from the previous measurement, the experiment continued[64]–[67]. All measurements were carried out at 37 °C.

[4] = system: IKACh in dog atrial trabecular muscle preparations; assay: Action potential duration in carbachol-pretreated dog atrial trabecular muscle; details: 10 µM, after 1 µM carbachol for 10 min
Description: The possible effect of SZV-2649 on IKACh was investigated in dog atrial trabecular muscle preparations. Carbachol (1 µM) was added to the tissue bath for 10 min to activate IKACh. […] Application of 10 µM SZV-2649 prolonged APD substantially to a greater degree (100%) than could be expected by its effect on repolarization in the absence of carbachol (10%) as shown in Table 1; Fig. 5D.
Action potentials were recorded in cardiac ventricular trabeculae and papillary muscle preparations obtained from the right ventricles of Beagle dogs (10–15 kg) of either sex using the conventional microelectrode technique. Dogs were sacrificed by iv. sedation with xylazine (1 mg/kg), followed by i.v. administration of 50 mg/kg pentobarbital. After the cornea reflex disapeared the chest was opened, and the heart was rapidly removed. […]
Isolated papillary muscle or atrial trabecula and Purkinje fiber preparations were obtained and prepared from the right ventricle and were individually mounted in a tissue chamber with the volume of 50 ml. […] Transmembrane potentials were recorded using conventional glass microelectrodes, filled with 3 M KCl and having tip resistances of 5–20 MΩ, connected to the input of a high impedance electrometer (Experimetria, type 309, Budapest, Hungary) which was coupled to a dual beam oscilloscope. […]

In the case of CC(N)COc1c(I)cc(C#N)cc1I.Cl (stereo not drawn) [SZV-2649, 4-(2-aminopropoxy)-3,5-diiodobenzonitrile hydrochloride], the “Effect on magnitude of ICaL” value [1] is reported as “moderately but significantly decreased”, the “Effect on amplitude of IKs tail current” value [2] is reported as “did not change or only minimally decreased” and the “Effect on inward rectifier potassium (IK1) current, steady state current-voltage relation” value [3] is reported as “no discernible effects”. For the same compound, the APA (dog atrial muscle; 5 µM) was 108.8 ± 1.9 mV, the APD50 (dog atrial muscle; 5 µM) was 73.3 ± 6.2 ms and the APD90 (dog atrial muscle; 5 µM) was 168.9 ± 8.8 ms. For the same compound, the RP (dog atrial muscle; 5 µM) was −88.2 ± 1.8 mV, the Vmax (dog atrial muscle; 5 µM) was 195.3 ± 22.0 V/s and the APA (dog atrial muscle; 10 µM) was 102.6 ± 3.2 mV. For the same compound, the APD50 (dog atrial muscle; 10 µM) was 70.1 ± 6.2 ms, the APD90 (dog atrial muscle; 10 µM) was 176.8 ± 8.5 ms and the RP (dog atrial muscle; 10 µM) was −85.1 ± 1.7 mV. The Vmax (dog atrial muscle; 10 µM) was 145.9 ± 12.1 V/s, the “Prolongation of repolarization (APD) in the absence of carbachol” value (dog atrial muscle; 10 µM, dog atrial muscle) was 10% and the “Prolongation of APD in the presence of carbachol” value [4] was 100%.
